Consider 23 molecules from article PMC9841521, “Subnanomolar Affinity and Selective Antagonism at α7 Nicotinic Receptor by Combined Modifications of 2-Triethylammonium Ethyl Ether of 4-Stilbenol (MG624)” (Journal of Medicinal Chemistry, 2022).

Each structure is given as a SMILES string. Like-named read-outs stand apart in the source and are kept apart here.

One assay concerns the target T1, human α3β4-nAChR subtype (Homo sapiens, UniProt P30926+P32297).
T1 construct: expressed in transfected cells
Briefly: Competition binding with [3H]epibatidine, membranes of SH-EP1 cells stably transfected with α3 and β4. The settings on record: for Ki: human α3β4 expressed in SH-EP1 cells, confidence interval in parentheses, read-out: α3β4-nAChR [3H]-Epi Ki.

For a further assay, the target named is T2, human α4β2-nAChR subtype (Homo sapiens, UniProt P17787+P43681).
T2 construct: expressed in transfected cells; gift of Dr. Jon Lindstrom
Briefly: Competition binding with [3H]epibatidine, membranes of HEK 293 cells stably transfected with α4 and β2. The settings on record: human α4β2 expressed in HEK 293 cells; confidence interval in parentheses; read-out: α4β2-nAChR [3H]-Epi Ki.

For a further assay, the target named is human α7-nAChR (Homo sapiens, UniProt P36544). In words: Two-electrode voltage clamp, antagonism of currents activated by 1 mM ACh, test compound coapplied, X. laevis oocytes. It is filed as cell-based. Conditions: for inhibition of ACh-induced function at the α7-nAChR: maximal inhibition. Background: Two-electrode voltage clamp is typically applied to oocytes expressing channels or transporters.

For the next assay, the target named is T3, human α9α10-nAChR (Homo sapiens, UniProt Q9GZZ6+Q9UGM1).
T3 construct: expressed in transfected cells; host or cells: Xenopus laevis oocytes (cRNA injection, α9:α10 9:1)
In words: Two-electrode voltage clamp, antagonism of currents activated by 1 mM ACh, test compound coapplied, X. laevis oocytes (α9:α10 cRNA 9:1). The class given is cell-based. The settings on record: coapplied with 1 mM ACh; for IC50 / inhibition of ACh-induced α9α10-nAChR function (in words): up to 100 μM; for IC50: 95% confidence interval in parentheses; for inhibition of ACh-induced function at the α9α10-nAChR: maximal inhibition.

[1] abbreviates: coapplied with 1 mM ACh, up to 100 μM, 95% confidence interval in parentheses, NA = not inhibited even at 100 μM, read-out: α7 IC50 (AUC).
Where [2] appears, read: coapplied with 1 mM ACh, up to 100 μM, 95% confidence interval in parentheses, NA = not inhibited even at 100 μM, read-out: α7 IC50 (peak current).
Setting [3] is: coapplied with 1 mM ACh, up to 100 μM.

For the molecule `CC[N+](CC)(CC)CCOc1ccccc1` [Compound 3, N,N,N-Triethyl-2-phenoxyethan-1-aminium Iodide], the Ki on human α3β4-nAChR subtype was determined as 10 µM; on human α4β2-nAChR subtype, 19 µM.

`C=Cc1ccc(OCC[N+](CC)(CC)CC)cc1` [Compound 4, N,N,N-Triethyl-2-(4-vinylphenoxy)ethan-1-aminium Iodide]: the results for the Ki on human α3β4-nAChR subtype and on human α4β2-nAChR subtype were 1.07 µM and 24 µM, respectively.

Take `CC[N+](CC)(CC)CCOc1ccc(-c2ccccc2)cc1` [Compound 5, 2-([1,1′-Biphenyl]-4-yloxy)-N,N,N-triethylethan-1-aminium Iodide]: the Ki came to 0.44 µM at human α3β4-nAChR subtype and 11.8 µM at human α4β2-nAChR subtype.

For the molecule `CC[N+](CC)(CC)CCOc1ccc(C#Cc2ccccc2)cc1` [Compound 7, N,N,N-Triethyl-2-(4-(phenylethynyl)phenoxy)ethan-1-aminium Iodide], the Ki at human α3β4-nAChR subtype is 0.912 µM; on human α4β2-nAChR subtype it was 19.4 µM.

In the case of `CC[N+](CC)(CC)CCOc1ccc(-c2ccc3ccccc3c2)cc1` [Compound 8, N,N,N-Triethyl-2-(4-(naphthalen-2-yl)phenoxy)ethan-1-aminium Iodide], the Ki at human α3β4-nAChR subtype was 0.458 µM; at human α4β2-nAChR subtype, 1.8 µM.

In the case of `CC[N+](CC)(CC)CCOc1ccc(-c2cccc3ccccc23)cc1.[I-]` [Compound 9, N,N,N-Triethyl-2-(4-(naphthalen-1-yl)phenoxy)ethan-1-aminium Iodide], the “higher affinity for the α3β4- than for the α7-nAChR” value on human α3β4-nAChR subtype (binding affinities) is “≈ 30 fold”.

As for `CC[N+](CC)(CC)CCOc1ccc(/C=C/c2cccc3ccccc23)cc1` [Compound 10, (E)-N,N,N-Triethyl-2-(4-(2-(naphthalen-1-yl)vinyl)phenoxy)ethan-1-aminium Iodide], the Ki at human α3β4-nAChR subtype worked out at 0.501 µM.

In the case of `CC[N+](CC)(CC)CCOc1ccc(/C=C/c2ccc3ccccc3c2)cc1` [Compound 11, (E)-N,N,N-Triethyl-2-(4-(2-(naphthalen-2-yl)vinyl)phenoxy)ethan-1-aminium Iodide], at human α3β4-nAChR subtype, the inhibition constant (Ki) amounted to 0.425 µM.

On to `CC[N+](CC)(CC)CCOc1ccc(/C=C/c2cccc(C(F)(F)F)c2)cc1` [Compound 15, (E)-N,N,N-Triethyl-2-(4-(3-(trifluoromethyl)styryl)phenoxy)ethan-1-aminium Iodide], for which the figures for the Ki at human α3β4-nAChR subtype and at human α4β2-nAChR subtype were 1.41 µM and 21.8 µM, respectively.

On to `CC[N+](CC)(CC)CCOc1ccc(/C=C/c2ccc(C(F)(F)F)cc2)cc1` [Compound 16, (E)-N,N,N-Triethyl-2-(4-(4-(trifluoromethyl)styryl)phenoxy)ethan-1-aminium Iodide], for which the Ki amounted to 0.874 µM on human α3β4-nAChR subtype and 10.4 µM on human α4β2-nAChR subtype.

Regarding `CC[N+](CC)(CC)CCOc1ccc(/C=C/c2ccc(OC)cc2)cc1` [Compound 18, (E)-N,N,N-Triethyl-2-(4-(4-methoxystyryl)phenoxy)ethan-1-aminium Iodide], the Ki at human α3β4-nAChR subtype was 0.187 µM.

For `CC[N+](CC)(CC)CCOc1ccc(/C=C/c2cccc(O)c2)cc1` [Compound 19, (E)-N,N,N-Triethyl-2-(4-(3-hydroxystyryl)phenoxy)ethan-1-aminium Iodide], the results for the Ki at human α3β4-nAChR subtype and on human α4β2-nAChR subtype were 0.998 µM and 10.1 µM, respectively.

For the molecule `CC[N+](CC)(CC)CCOc1ccc(/C=C/c2ccc(O)cc2)cc1` [Compound 20, (E)-N,N,N-Triethyl-2-(4-(4-hydroxystyryl)phenoxy)ethan-1-aminium Iodide], the Ki at human α3β4-nAChR subtype is 0.873 µM; on human α4β2-nAChR subtype, 9.82 µM.

Consider `CC[N+](CC)(CC)CCOc1ccc(/C=C/c2cc(OC)cc(OC)c2)cc1` [Compound 21], for which the Ki on human α3β4-nAChR subtype turned out to be 0.676 µM; at human α4β2-nAChR subtype, 1.2 µM.

For `CC[N+](CC)(CC)CCOc1ccc(/C=C/c2cc(O)cc(O)c2)cc1` [Compound 22, (E)-2-(4-(3,5-Dihydroxystyryl)phenoxy)-N,N,N-triethylethan-1-aminium Iodide], the Ki is 0.793 µM at human α3β4-nAChR subtype and 7.24 µM at human α4β2-nAChR subtype.

Turning to `CC[N+](CC)(CC)CCOc1ccc(OCc2ccccc2)cc1` [Compound 23, 2-(4-(Benzyloxy)phenoxy)-N,N,N-triethylethan-1-aminium Iodide], the Ki at human α3β4-nAChR subtype amounted to 4.7 µM.

Consider `CC[N+](CC)(CC)CCOc1ccc(NC(=O)c2ccccc2)cc1` [Compound 25, 2-(4-Benzamidophenoxy)-N,N,N-triethylethan-1-aminium Iodide], for which the figures for the Ki at human α3β4-nAChR subtype and on human α4β2-nAChR subtype were 1.07 µM and 4.5 µM, respectively. Besides, the IC50 on human α7-nAChR (setting [1]) was found to be 26.9 µM; at human α7-nAChR (setting [2]) it was 25.7 µM; at human α9α10-nAChR, 115 µM.

`CC[N+](CC)(CC)CCOc1ccc(C(=O)Nc2ccccc2)cc1` [Compound 26, N,N,N-Triethyl-2-(4-(phenylcarbamoyl)phenoxy)ethan-1-aminium Iodide]: the Ki on human α3β4-nAChR subtype was 0.113 µM; at human α4β2-nAChR subtype, 23 µM. Further, the IC50 at human α7-nAChR (setting [1]) was > 100 µM; at human α7-nAChR (setting [2]), > 100 µM; at human α7-nAChR (supplementary CSV, read-out: alpha7 nAChR IC50 (AUC)), > 100 µM; on human α7-nAChR (supplementary CSV, read-out: alpha7 nAChR IC50 (peak current)), > 100 µM; at human α9α10-nAChR it was 75.9 µM.

With `CC[N+](CC)(CC)CCOc1ccc(/N=N/c2ccccc2)cc1.[I-]` [Compound 27, (E)-N,N,N-Triethyl-2-(4-(phenyldiazenyl)phenoxy)ethan-1-aminium Iodide], at human α7-nAChR (setting [3]), the “inhibition of ACh-induced α7-nAChR function (in words)” value is given as “complete or nearly complete inhibition”. Besides, the IC50 at human α7-nAChR (setting [1]) came out at 5.54 µM; on human α7-nAChR (setting [2]), 11.2 µM; at human α9α10-nAChR, 15.8 µM. Also, at human α9α10-nAChR, the “inhibition of ACh-induced α9α10-nAChR function (in words)” value is listed as “complete or nearly complete inhibition”.

As to `CC[N+](CC)(CC)CCOc1ccc(-c2nc3ccccc3[nH]2)cc1` [Compound 29, 2-(4-(1H-Benzo[d]imidazol-2-yl)phenoxy)-N,N,N-triethylethan-1-aminium Iodide], the Ki on human α3β4-nAChR subtype stood at 0.345 µM. For the same molecule, the IC50 at human α7-nAChR (setting [1]) worked out at 197 µM; at human α7-nAChR (setting [2]) it was 182 µM; at human α9α10-nAChR, 202 µM.

For the molecule `CC[N+](CC)(CC)CCOc1ccc(-c2ccc3cc[nH]c3c2)cc1.[I-]` [Compound 30, 2-(4-(1H-Indol-6-yl)phenoxy)-N,N,N-triethylethan-1-aminium Iodide], the Ki at human α3β4-nAChR subtype was 0.174 µM. The “inhibition of ACh-induced α7-nAChR function (in words)” value against human α7-nAChR (setting [3]) is given as “complete or nearly complete inhibition”. Besides, the IC50 at human α7-nAChR (setting [1]) turned out to be 1.95 µM. Moreover, the IC50 at human α7-nAChR (setting [2]) was 1.91 µM. Further, at human α7-nAChR (coapplied with 1 mM ACh), the “inhibition of ACh-induced function at the α7-nAChR” value stood at 100%. In addition, at human α9α10-nAChR, the “inhibition of ACh-induced α9α10-nAChR function (in words)” value is listed as “complete or nearly complete inhibition”, the IC50 is 6.46 µM and the “inhibition of ACh-induced function at the α9α10-nAChR” value stood at 100%.

In the case of `CC[N+](CC)(CC)CCOc1ccc(-c2ccc3[nH]ccc3c2)cc1.[I-]` [Compound 31, 2-(4-(1H-Indol-5-yl)phenoxy)-N,N,N-triethylethan-1-aminium Iodide], the Ki at human α3β4-nAChR subtype turned out to be 0.177 µM. For the same molecule, the “inhibition of ACh-induced α7-nAChR function (in words)” value against human α7-nAChR (setting [3]) is on record as “complete or nearly complete inhibition”. In addition, the IC50 on human α7-nAChR (setting [1]) is 1.86 µM. On human α7-nAChR (setting [2]), the IC50 amounted to 2.01 µM. Besides, the “inhibition of ACh-induced function at the α7-nAChR” value against human α7-nAChR (coapplied with 1 mM ACh) is given as 100%. At human α9α10-nAChR, the “inhibition of ACh-induced α9α10-nAChR function (in words)” value was “complete or nearly complete inhibition”, the IC50 was 8.13 µM and the “inhibition of ACh-induced function at the α9α10-nAChR” value is 100%.

In the case of `CC[N+](CC)(CC)CCOc1ccc(-c2ccc3occc3c2)cc1` [Compound 32, 2-(4-(Benzofuran-5-yl)phenoxy)-N,N,N-triethylethan-1-aminium Iodide], the Ki on human α3β4-nAChR subtype was found to be 0.343 µM.

What is called Ki is the equilibrium dissociation constant of an inhibitor or competing ligand from its target. As usually defined, the IC50 is the point on the concentration scale where inhibition reaches its midpoint.
